The record followed here is a melting point compilation (Tetko et al.; mined from patent text by program, amines drawn as free bases though some values may be those of a salt).

A value given as a limit tells only on which side of the number the result lay.

As a reminder, the melting point is the temperature, or range, at which the solid turns liquid. With `CC1C(=O)N(C2CCCC2)C(=S)N1c1ccc(Oc2ccccc2)cc1` (stereo not drawn), the melting point worked out at 99 °C.

Turning to `CCCc1nc(CO)c(C(=O)OCOC(=O)C(C)(C)C)n1Cc1ccc(-c2ccccc2-c2nnn[nH]2)cc1`, the melting point is above 60 °C.

Regarding `CCn1c(=O)ccc2cnc(Nc3ccc(F)cc3)nc21`, the melting point fell in the range of 215 to 217 °C.

Compound `COC(=O)c1ccc2c(=O)n(CC(C)C)c(CNC(=O)OC(C)(C)C)c(-c3ccc(Cl)cc3)c2c1` came in with a melting point of 205 to 207 °C.

`O=C(Nc1cc(Cl)cc(Cl)c1)c1cc(Br)cc(Br)c1O` returned a melting point of 181 to 182 °C.

For `COC1(c2cc(F)cc(Sc3ccc(C(C)ONC(N)=O)cc3)c2)CCOCC1` (stereo not drawn), the melting point is 84 to 85 °C.

Compound `COC(=O)c1cc(N2CCSCC2)c(C(F)(F)F)cc1[N+](=O)[O-]` came in with a melting point of 68 to 82 °C.

In turn, `CC(c1cccc(C(F)(F)F)c1N)S(C)(=O)=O` (stereo not drawn) gave a melting point of 153 to 155 °C.

`CC(C)OCCOc1ccc(-c2ccc3c(c2)C=C(C(=O)O)CCN3C=O)cc1` displayed a melting point of 165 to 166 °C.

Compound `COc1cc2c(cc1-c1c(C)nn(C)c1C)-c1c(-c3cccs3)c3c(n1CC2)C(=O)N(C(C)C)CCN(C(=O)C(C)C)C3` displayed a melting point of 232 to 235 °C.

As to `O=C1NCCc2[nH]c3c(OCc4ccccc4)cccc3c21`, the melting point was 182 to 185 °C.

With `COC(=O)CSc1nc(SCc2c(Cl)cccc2Cl)ncc1[N+](=O)[O-]`, the melting point lay in the range of 155 to 158 °C.

With `Nc1c(Cl)cc(C(O)CNCCCCCOCCc2ccccc2)cc1C(F)(F)F` (stereo not drawn), the melting point lay in the range of 70 to 71.5 °C.

For the compound `Cc1cc(O)nn1C(=O)Nc1ccccc1`, the melting point fell in the range of 232 to 234 °C.

The compound `C/C(=C\c1ccc(C=O)cc1)c1ccc2c(c1)C(C)(C)CCC2(C)C` yielded a melting point of 140 to 141 °C.

`CCn1ncc2c3noc(C)c3cnc21` displayed a melting point of 181 to 182 °C.

For `CCOn1c(C)nc(N2CCc3ccccc3CC2)c(C#N)c1=O`, the melting point lay within 149 to 152 °C.

Turning to `CCOc1cc(C)c(Cl)cc1S(N)(=O)=O`, the melting point is 153 to 155 °C.

`COc1ncnc(Cl)c1[N+](=O)[O-]`: the melting point came to 65 °C.

`CC(C)OC(=O)c1cc(-n2c(=O)[nH]c3c(c2=O)CCC3)c(Br)cc1Br` yielded a melting point of 223 to 226 °C.

Consider `O=c1c2[nH]c(N(S(=O)(=O)c3ccccc3)S(=O)(=O)c3ccccc3)nc2n(CC2CC2)c(=O)n1CC1CC1`, for which the melting point came to 238 °C.

Regarding `CC(=O)Nc1ccc(OCCOC(=O)CCCNC(=O)c2cc(OCc3ccccc3)ccc2OCc2ccccc2)cc1`, the melting point fell in the range of 141 to 143 °C.

The compound `CNc1nc(Nc2ccccc2C)c2cccc(OC)c2n1` gave a melting point of 190 to 192 °C.

As for `CNC(=C[N+](=O)[O-])NCCN1CCC(C(=O)c2ccc(F)cc2)CC1`, the melting point fell in the range of 157 to 159 °C.

On to `CCc1nc2c(N)nc3ccccc3c2n1CCC1(O)CCOCC1`, for which the melting point lay within 243 to 244 °C.

With `CN1CCC(Cc2ccc(Cl)nc2)C1=C[N+](=O)[O-]` (stereo not drawn), the melting point lay in the range of 141 to 142 °C.

The compound `O=[N+]([O-])c1cn2c(n1)OC(COc1ccc(N3CCN(CC4CCN(Cc5ccc(C(F)(F)F)cc5)CC4)CC3)cc1)CC2` (stereo not drawn) yielded a melting point of 214 to 217 °C.

Turning to `CCCOc1ccc(S(=O)(=O)N2CCN(CCC)CC2)cc1-c1nc2cc3ncn(Cc4ccccc4)c3cc2c(=O)[nH]1`, the melting point is 194 to 195 °C.

`CN(C)C(=O)Nc1ccc(OCc2nc(Cl)ccc2Cl)cc1` registered a melting point of 162 °C.

Compound `O=C(O)Cc1ccc([N+](=O)[O-])c(C(=O)c2ccc(Cl)cc2)c1` returned a melting point of 182 to 183 °C.

Compound `O=C1OCN(C(=O)OCc2ccccc2)[C@H]1CCCl` registered a melting point of 75 to 77 °C.

For `COc1ccc(-c2cc(C#N)c(=O)[nH]c2C)cc1`, the melting point fell in the range of 258 to 259 °C.

Consider `Cc1onc(-c2c(F)cccc2Cl)c1C(=O)CBr`, for which the melting point is 74 to 75 °C.

As to `O=c1c2cccc(O)c2oc2cc(O)cc(O)c12`, the melting point was in the range of 211 to 213 °C.

In turn, `COc1nc(N)nc(-c2ccccc2)c1-c1ccc(=O)n(C)n1` registered a melting point of 218 to 220 °C.

In turn, `NC(=O)Nc1cccc2c1C(=O)c1c-2n[nH]c1-c1ccsc1` displayed a melting point above 280 °C.

Compound `CC1=NN(c2cc(Cl)c(Sc3ccc(Cl)cc3)c(Cl)c2)C(=O)NC1` returned a melting point of 258 to 259 °C.

`COc1nc(=O)n(-c2ccc(Cl)cc2)c(=O)[nH]1` came in with a melting point of 238 to 241 °C.

`C#CCSc1nc[nH]n1` registered a melting point of 102 to 104 °C.

Take `CC1=C(C(=O)N(C)C)C(c2ccccc2Cl)c2c[nH]nc2N1` (stereo not drawn): the melting point came out at 229 °C.

Take `O=[N+]([O-])c1ccnc(N2CCNCC2)c1`: the melting point lay within 92 to 93 °C.

Regarding `NCCCP(=O)(O)c1ccccc1`, the melting point was 298 to 300 °C.

Turning to `Fc1cc2c(c(-c3c(Cl)cccc3Cl)c1)OC(CNC1CCC1)C2` (stereo not drawn), the melting point is 128 to 130 °C.

The compound `CSc1ccn2nc(S(=O)(=O)Nc3c(Cl)cccc3Cl)nc2n1` came in with a melting point of 239 to 243 °C.

On to `CSc1ccc(-c2nn(CC3CC3)c(=O)cc2-c2ccc(Cl)cc2)cc1`, for which the melting point was in the range of 142 to 143 °C.

The compound `COC(=O)C(C)(C)Sc1cccc(OC(=O)Nc2ccc(C(F)(F)F)cc2)c1` came in with a melting point of 66 to 67 °C.

The compound `Cc1ccc(-c2cn(C)cc(-c3cccc(C(F)(F)F)c3)c2=O)cc1` displayed a melting point of 154 to 156 °C.

`O=C(Nc1ccc(C(=O)N2Cc3ccccc3Cc3ccccc32)cn1)c1ccccc1-c1ccccc1` registered a melting point of 134 to 142 °C.

With `O=C1NC(N2CCN(c3cnc(Cl)cn3)CC2)c2ccccc21` (stereo not drawn), the melting point was in the range of 263 to 266 °C.

`CCCc1c(C(=O)NCc2ccc3c(Br)c(OCC(=O)O)ccc3c2)cnn1-c1ccccc1` yielded a melting point of 140 to 145 °C.

For `CC(C)c1n[nH]c2c(NCc3cccc(O)c3)ncnc12`, the melting point lay within 220 to 221 °C.

On to `Cc1cc(OCCOc2ccc3ccccc3c2)ccc1C(=O)C(=O)O`, for which the melting point was in the range of 129 to 131 °C.

Compound `c1ccc(C(OC2CCN(CCCCNc3ccc4ncnn4n3)CC2)c2ccccc2)cc1` registered a melting point of 102 to 104 °C.

In turn, `CCCCc1nc2c(N)nc3cc(-c4ccccc4OCCC)ccc3c2n1CC(C)C` had a melting point of 174 to 176 °C.

Regarding `c1ccc2c(c1)ccc1nn[nH]c12`, the melting point is 245 to 247 °C.

Compound `O=C(O)c1cccc(C(=O)C=Cc2ccc(OCc3ccc4ccccc4n3)cc2)c1O` came in with a melting point of 233 to 235 °C.

For the compound `COC(=O)c1ccc2c(c1)nc(C)n2N`, the melting point was 220 to 222 °C.

As for `CCOC(=O)N1CCN(C=C2C(=O)Nc3cc(OC)c(OC)cc32)CC1`, the melting point lay within 172 to 174 °C.

The compound `Cc1cc(C)cc(S(=O)(=O)n2c(CCCC(=O)O)cc3nc(Cl)ccc32)c1` yielded a melting point of 200 °C.

Take `CS(=O)(=O)c1ccc(-c2cnn(-c3ccc(F)cc3)c(=O)c2Cc2cccc(F)c2)cc1`: the melting point was 176 to 178 °C.

Compound `FC(F)(F)c1cccc(-c2ccnc3c(Br)cnn23)c1` displayed a melting point of 138 to 140 °C.

`O=C(C1CCCCCC1)N1c2ccccc2CCC1CN1CCN(c2cccc3[nH]ccc23)CC1` (stereo not drawn) yielded a melting point of 167 to 173 °C.

`CS(=O)(=O)Nc1ccccc1SC1CCCCC1` displayed a melting point of 50 to 51 °C.

As to `O=Cc1ccccc1NC1CCN(Cc2ccccc2)CC1`, the melting point fell in the range of 87 to 90 °C.

Turning to `CCOC(=O)CCc1ccc(C(=O)c2ccc(Cl)cc2)n1C`, the melting point is 71.5 to 73 °C.

`Cc1ccc(-c2ccccc2C(=O)O)cc1C(=O)NCC12CC3CC(CC(C3)C1)C2` showed a melting point of 85 to 92 °C.

Regarding `CCCNC(=O)c1c(Cl)cccc1OC(C)(CC)CC`, the melting point lay in the range of 100 to 102 °C.

`O=c1nc(-c2c(F)cccc2F)oc(=O)n1-c1ccc(Cl)c(Cl)c1` returned a melting point of 196 to 197 °C.

As for `Cc1ncsc1NC(=O)Nc1ccc(-n2nc(C(F)(F)F)cc2C2CC2)cc1`, the melting point was in the range of 124 to 126 °C.

The compound `Cc1cccc(C#Cc2cccc(Br)c2)n1` showed a melting point of 60 to 61 °C.

Compound `Nc1nc(N)c2[nH]c(C3OC(CO)C(O)C3O)nc2n1` (stereo not drawn) yielded a melting point of 234 to 237 °C.

The compound `COc1ccc(N2CCN(c3c(C)c(C)c4c(c3C)C(Cc3ccccc3)C(C)(C)O4)CC2)cc1` (stereo not drawn) displayed a melting point of 146 to 148 °C.

`Cn1nc(-c2ccccc2)c(OC(C)(C)C)c1-c1ccccc1` returned a melting point of 106 to 108 °C.

`CCCCOCC(CO)OCn1cnc2c(O)nc(N)nc21` (stereo not drawn): the melting point was 208 to 211 °C.

`COc1ccc(Cl)cc1-c1c(N)c(=O)[nH]c2cc(Cl)c(Cl)cc12` displayed a melting point above 300 °C.

On to `Clc1ccc2[nH]c(SCc3nc4ccccc4s3)nc2c1`, for which the melting point fell in the range of 176 to 180 °C.

Take `O=C1CN=C(c2ccccc2)c2cc(C(c3ccc(Cl)cc3)n3ccnc3)ccc2N1` (stereo not drawn): the melting point was 144 °C.

In turn, `COc1ccc(COc2cncc3c2C(=O)c2c(NCCN(C)C)ccc(Cl)c2C3=O)cc1` came in with a melting point of 127 to 128 °C.

As to `Cc1cccc(C)c1NCC(C)Nc1c(C)cccc1C` (stereo not drawn), the melting point was 52 to 55 °C.

The compound `O=C(Nc1ccccc1)C1CSc2sccc2C1=O` (stereo not drawn) gave a melting point of 155 to 158 °C.

For `COc1ccc(OC)c2c1C(=O)C=C(SCCCCCCCCCCC(=O)NCC(C)C)C2=O`, the melting point lay in the range of 74 to 75 °C.

Compound `CCCCCCCCCCC(O)CNCCNCC(O)CCCCCCCCCC` (stereo not drawn) gave a melting point of 137 to 142 °C.

Compound `CCCCc1nn(-c2cc(C(=O)OC)ccc2Cl)c(=O)n1Cc1ccc(-c2ccccc2S(=O)(=O)NC(C)(C)C)cc1` registered a melting point of 65 to 67 °C.

`CC1(C)CC(OC(=O)Nc2ccccc2)CC(C)(C)N1OC(=O)Nc1ccccc1`: the melting point was 188 to 190 °C.

As to `O=C(O)c1ccc(-c2ccc3c(c2)CCN(CCN2CCCC2)C3)cc1`, the melting point was in the range of 269 to 271 °C.

`CC(C)(C)OC(=O)N(Cc1ccc(C(=O)O)cc1)c1ccc(C2CCCCC2)cc1` showed a melting point of 192 to 194 °C.

Turning to `COc1cc2ncc(C#N)c(Nc3ccc(Cl)c4ccccc34)c2cc1OC`, the melting point was above 250 °C.

`COc1cc(CC(=O)N2CCN(C(=O)CNC3CCN(Cc4ccccc4)CC3)C(c3ccccc3)C2)cc(OC)c1OC` (stereo not drawn) had a melting point of 53 to 56 °C.
